Data on 19 compounds can be found in ChEMBL document CHEMBL5325398, “Design of Cytochrome P450 1B1 Inhibitors via a Scaffold-Hopping Approach” (J Med Chem, 2023).

Series [1] can be described thus: Cytotoxicity against HEK293-T-REx cells assessed as reduction in cell viability measured after 72 hrs by resazurin dye based analysis. It counts as toxicity, Homo sapiens. The following applies: for IC50: hek293-t-rex; for IC50 at 72 h: human, HEK293-T-REx cells.
Series [2] has as its target Cytochrome P450 1B1 (Homo sapiens, UniProt Q16678, T334V). The series can be described thus: Inhibition of CYP1B1 T334V mutant (unknown origin) expressed in HEK293-T-REx cells. It counts as ADME, cell-based.
The target in series [3] is Cytochrome P450 1B1 (Homo sapiens, UniProt Q16678, T510V). Description: Inhibition of CYP1B1 T510V mutant (unknown origin) expressed in HEK293-T-REx cells. It counts as ADME, cell-based.
Chain of Cytochrome P450 1B1 (Homo sapiens, UniProt Q16678, T510V) (Q16678 whole entry T510V): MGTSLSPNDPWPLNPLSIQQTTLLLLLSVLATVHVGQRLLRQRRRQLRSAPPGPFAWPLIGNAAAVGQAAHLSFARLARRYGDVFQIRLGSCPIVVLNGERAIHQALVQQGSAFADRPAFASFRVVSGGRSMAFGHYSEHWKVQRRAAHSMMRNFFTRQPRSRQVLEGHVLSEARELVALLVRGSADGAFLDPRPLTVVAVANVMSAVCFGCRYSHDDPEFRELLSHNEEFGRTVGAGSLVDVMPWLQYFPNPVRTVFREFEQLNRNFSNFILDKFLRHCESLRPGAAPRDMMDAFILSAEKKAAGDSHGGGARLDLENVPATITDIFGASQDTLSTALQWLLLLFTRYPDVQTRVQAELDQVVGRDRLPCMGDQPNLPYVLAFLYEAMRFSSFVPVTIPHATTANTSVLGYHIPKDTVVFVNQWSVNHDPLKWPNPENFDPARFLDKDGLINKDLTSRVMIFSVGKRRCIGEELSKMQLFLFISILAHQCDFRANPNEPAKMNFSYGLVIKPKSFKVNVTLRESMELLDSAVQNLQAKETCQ
The target of series [4] is Cytochrome P450 1B1 (Homo sapiens, UniProt Q16678, S127C). The series can be described thus: Inhibition of CYP1B1 S127C mutant (unknown origin) expressed in HEK293-T-REx cells. It counts as ADME, cell-based.
Chain of Cytochrome P450 1B1 (Homo sapiens, UniProt Q16678, S127C) (Q16678 whole entry S127C): as the sequence (Q16678 whole entry T510V) above, with S127C, V510T counted along it
The target of a further series is T1, Cytochrome P450 1A1 (Homo sapiens, UniProt P04798).
T1 sequence (P04798 whole entry): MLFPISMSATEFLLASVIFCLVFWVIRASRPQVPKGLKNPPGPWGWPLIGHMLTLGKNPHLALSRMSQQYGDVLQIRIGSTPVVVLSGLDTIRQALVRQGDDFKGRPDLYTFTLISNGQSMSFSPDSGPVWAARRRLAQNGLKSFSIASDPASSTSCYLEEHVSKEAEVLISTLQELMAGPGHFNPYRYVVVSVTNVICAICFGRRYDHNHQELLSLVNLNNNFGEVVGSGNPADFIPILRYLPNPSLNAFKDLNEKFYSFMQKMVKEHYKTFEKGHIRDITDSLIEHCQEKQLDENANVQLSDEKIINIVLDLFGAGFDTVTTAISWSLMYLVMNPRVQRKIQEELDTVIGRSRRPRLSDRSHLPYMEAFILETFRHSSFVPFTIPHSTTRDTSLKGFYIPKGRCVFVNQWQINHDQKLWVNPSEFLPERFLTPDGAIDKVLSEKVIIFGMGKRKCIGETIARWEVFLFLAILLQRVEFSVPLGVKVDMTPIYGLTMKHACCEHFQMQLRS
The series can be described thus: Inhibition of CYP1A1 (unknown origin) expressed in HEK293-T-REx cells co-expressing POR incubated for 1 hr by resorufin dye based plate reader analysis. It counts as ADME, cell-based.

The nature of series [5]: in vitro. The following applies: mouse, liver.
A short description of series [6]: in vitro. The following applies: rat, liver.
Series [7] is described as follows: in vitro. The following applies: human, liver.
The target in series [8] is T2, Cytochrome P450 1B1 (Homo sapiens, UniProt Q16678).
T2 sequence (Q16678 whole entry): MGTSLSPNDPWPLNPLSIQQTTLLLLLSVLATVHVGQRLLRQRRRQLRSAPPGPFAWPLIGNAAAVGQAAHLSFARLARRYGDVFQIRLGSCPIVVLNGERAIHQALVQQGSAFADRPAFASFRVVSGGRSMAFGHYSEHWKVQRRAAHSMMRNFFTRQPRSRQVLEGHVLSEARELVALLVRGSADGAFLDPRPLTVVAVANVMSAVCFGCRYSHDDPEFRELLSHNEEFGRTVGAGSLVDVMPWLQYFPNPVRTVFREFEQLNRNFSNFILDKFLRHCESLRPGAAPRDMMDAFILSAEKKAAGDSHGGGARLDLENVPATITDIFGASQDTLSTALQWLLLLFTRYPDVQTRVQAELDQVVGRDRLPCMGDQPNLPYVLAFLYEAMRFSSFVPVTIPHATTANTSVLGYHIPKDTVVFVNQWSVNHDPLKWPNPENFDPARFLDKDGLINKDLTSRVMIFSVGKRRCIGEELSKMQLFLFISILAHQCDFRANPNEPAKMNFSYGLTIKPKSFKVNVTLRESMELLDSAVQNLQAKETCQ
Description: Inhibition of CYP1B1 (unknown origin) expressed in HEK293-T-REx cells co-expressing POR incubated for 1 hr by resorufin dye based plate reader analysis. It counts as ADME, cell-based.

The target of series [9] is T2, Cytochrome P450 1B1. Description: Binding affinity to N-terminal human microsomal CYP1B1 expressed in Escherichia coli assessed as spectral dissociation constant by absorbance based analysis.
The subject of another series is CYP1A1 versus CYP1B1. Description: Selectivity index, ratio of IC50 for CYP1A1 (unknown origin) to IC50 for CYP1B1 (unknown origin). The following applies: read-out: Ratio IC50.

Each structure is given as a SMILES string.

One may read the IC50 as the concentration that inhibits the measured activity by half. One may read the CLint scaled as the rate of metabolic loss divided by the concentration. The low end stands for slow turnover, the high end for rapid turnover. As usually defined, the Kd is the concentration at which binding is half-saturated.

Chain of Cytochrome P450 1B1 (Homo sapiens, UniProt Q16678, T334V) (Q16678 whole entry T334V): as the sequence (Q16678 whole entry T510V) above, with T334V, V510T counted along it

In the case of `COc1ccc(-c2nc(-c3ccc(F)cc3)cs2)c(OC)c1`, the IC50 in [1] worked out at 51.4 µM.

Regarding `COc1cc(OC)cc(-c2cccc(-c3cc(OC)cc(OC)c3)c2)c1`, the IC50 in series [1] came to 4.18 µM.

`COc1cc(/C=C/c2ccc(OC)cc2OC)cc(OC)c1`: the “inhibition (INH)” value at Cytochrome P450 1B1 [2] is on record as “Not Active”; at Cytochrome P450 1B1 [3], “Not Active”; on Cytochrome P450 1B1 [4], “Active”. The half-maximal inhibitory concentration (IC50) in series [1] was found to be 1.3 µM.

Regarding `COc1ccc(OC)c2c1c(OC)cc1c(=O)cc(-c3cccc(F)c3)oc12`, the IC50 against Cytochrome P450 1A1 came out at 0.012 µM.

Turning to `O=C(O)Cc1ccccc1Nc1c(Cl)cccc1Cl` [DICLOFENAC], the CLint scaled at 100 µM in the series “in vitro [5]” stood at 178 mL/min/kg; in “in vitro [6]”, 142 mL/min/kg; in “in vitro [7]”, 324 mL/min/kg.

For the compound `O=c1cc(-c2ccccc2)oc2c1ccc1ccccc12` [ALPHA-NAPHTHOFLAVONE], the “inhibition (INH)” value is “Not Active” at Cytochrome P450 1B1 [2], “Active” at Cytochrome P450 1B1 [3] and “Active” against Cytochrome P450 1B1 [4]. In addition, in [1], the IC50 was 14.8 µM.

For `COc1cc(OC)cc(-c2csc(-c3cc(OC)cc(OC)c3)n2)c1`, the IC50 at 72 h in series [1] came out at 10 µM.

For the compound `COc1cc(OC)cc(-c2cncc(-c3cc(OC)cc(OC)c3)c2)c1`, the IC50 in [1] was determined as 0.18 µM.

Regarding `COc1cc(OC)cc(-c2ccnc(-c3cc(OC)cc(OC)c3)n2)c1`, the half-maximal inhibitory concentration (IC50) at 72 h in series [1] was 10 µM.

As for `COc1ccc(-c2nc(-c3cccnc3)cs2)c(OC)c1`, the IC50 in series [1] was found to be 26.7 µM.

As for `COc1ccc(-c2nc(-c3ccc(C#N)cc3)cs2)c(OC)c1`, the “inhibition (INH)” value on Cytochrome P450 1B1 [2] and against Cytochrome P450 1B1 [3] was “Not Active” in each case. In [1], the half-maximal inhibitory concentration (IC50) was above 100 µM.

Take `COc1ccc(-c2nc(-c3ccc(O)cc3)cs2)c(OC)c1`: the IC50 against Cytochrome P450 1B1 [8] was found to be 0.6 µM; in series [1], 3.4 µM. Further, on Cytochrome P450 1B1 [9], the Kd was determined as 0.35 µM.

Consider `COc1cc(OC)cc(-c2cc(-c3cc(OC)cc(OC)c3)ncn2)c1`, for which the IC50 in series [1] turned out to be 10 µM.

Turning to `COc1cc(OC)cc(-c2ccc(-c3cc(OC)cc(OC)c3)s2)c1`, in [1], the IC50 is above 10 µM.

Take `COc1ccc(-c2cccc(-c3ccc(OC)cc3OC)c2)c(OC)c1`: in [1], the IC50 was 1.62 µM.

As to `COc1ccc(/C=C/c2ccncc2)c(OC)c1`, at Cytochrome P450 1A1, half-maximal inhibition (IC50) was put at 4.57 µM.

With `COc1ccc(-c2csc(-c3ccc(OC)cc3OC)n2)cc1`, the IC50 in series [1] was above 100 µM.

Take `C#C[C@]1(O)CC[C@H]2[C@@H]3CCc4cc(O)c(-c5ccc(OC)cc5)cc4[C@H]3CC[C@@]21C`: the IC50 came to 0.37 µM at Cytochrome P450 1B1 [8] and 9.2 µM against Cytochrome P450 1A1. The selectivity ratio in the series on CYP1A1 versus CYP1B1 was found to be 25.

In the case of `COc1ccc(-c2csc(-c3ccc(OC)cc3OC)n2)c(OC)c1`, the 50% inhibitory concentration (IC50) in [1] was around 100 µM.
